Laboratory results from US20090221559A1 (priority 2005, published 2009).
Where two headings read alike, the source gives them in different places.

How the values were obtained:
[1] = tested on: HCV replicon RNA replication in Huh-7 luc/neo (Huh-Luc) cells; assay: HCV replicon assay (stable replicon cell reporter assay, luciferase read-out); type: cell-based, HCV type 1b
How it was run: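 Huh-7 cells stably carry a bicistronic HCV 1b NS3-NS5B subgenomic replicon with firefly luciferase and neo markers. Cells were plated with compound across a concentration range and incubated three days. Replication was measured as luciferase activity to give dose-response curves.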

[2] = target: T1, HCV NS5B polymerase (His-tagged, C-terminal 21 amino acid deleted NS5B, HC-J4) (Hepatitis C virus genotype 1b, UniProt O92972); assay: NS5b polymerase assay (biochemical RdRp assay, 3H-GTP incorporation, SPA beads); set-up: species or system HCV genotype 1b; settings: 3H-GTP incorporation, 2 h at 25° C.
T1 construct: The cDNA encoding NS5B amino acid 1-570 (HC-J4, genotype 1b); His tag (His6, from pET-21b) (C); made in house; host or cells: E. coli BL21 (DE3)
How it was run: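 His-tagged C-terminal-21-aa-deleted NS5B (genotype 1b, HC-J4) at 200 nM was preincubated 15 min at RT with compound on 5′-biotinylated oligo(rG13)/poly(rC) template/primer before NTPs. Reaction with 600 nM GTP plus 0.1 μCi 3H-GTP and 5 mM MgCl2 in Tris pH 7.5 ran 2 h at 25 °C. Stopped with EDTA/SPA beads for incorporation counting.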

[3] = Hepatitis C virus, Huh-7, 72 h, read-out: Replicon Assay EC50, Huh-Luc cells, three days incubation, luciferase activity
[4] = NS5B Polymerase Assay IC50, 200 nM enzyme

T1 sequence (O92972 2417-3000, looked up, stated change not applied): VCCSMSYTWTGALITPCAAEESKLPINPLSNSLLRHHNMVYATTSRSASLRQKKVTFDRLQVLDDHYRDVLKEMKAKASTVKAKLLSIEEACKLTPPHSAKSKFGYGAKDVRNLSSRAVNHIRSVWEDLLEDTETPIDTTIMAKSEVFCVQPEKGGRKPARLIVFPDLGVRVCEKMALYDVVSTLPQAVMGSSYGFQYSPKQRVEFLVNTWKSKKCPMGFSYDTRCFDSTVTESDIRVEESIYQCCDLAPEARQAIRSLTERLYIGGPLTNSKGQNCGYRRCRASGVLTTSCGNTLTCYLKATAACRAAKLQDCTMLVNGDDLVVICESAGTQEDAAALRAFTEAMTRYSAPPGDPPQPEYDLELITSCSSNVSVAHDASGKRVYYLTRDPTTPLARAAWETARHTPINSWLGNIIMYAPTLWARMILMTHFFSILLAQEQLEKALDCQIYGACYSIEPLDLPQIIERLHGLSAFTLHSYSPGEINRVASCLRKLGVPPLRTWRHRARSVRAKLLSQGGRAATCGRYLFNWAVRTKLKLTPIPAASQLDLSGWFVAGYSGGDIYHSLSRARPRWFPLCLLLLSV

Structure (SMILES)	EC50 [1, 3]	IC50 [2, 4]	EC50 ([1]; Huh-Luc cells, three days incubation, luciferase activity, read-out: Replicon Assay EC50)	IC50 ([2]; 200 nM enzyme, read-out: NS5B Polymerase Assay IC50)
COc1c(Cl)cc(Cl)cc1C1C2=C(CC(C)(C)CC2=O)Nc2ccccc2N1C(C)=O (stereo not shown) [compound 73]	19.9 µM	> 42.7 µM		
CC1(C)CC(=O)C2=C(C1)Nc1ccccc1N(C(=O)c1ccccc1)C2c1ccc(Br)cc1 (stereo not shown) [compound 74]	> 26.7 µM	> 42.7 µM		
CCC(=O)N1c2ccccc2NC2=C(C(=O)CC(C)(C)C2)C1c1ccc(OC)cc1OC (stereo not shown) [compound 75]	20.5 µM	> 42.7 µM		
CN(C)c1ccc(C2C3=C(CC(C)(C)CC3=O)Nc3ccccc3N2C(=O)Nc2ccc(Cl)c(Cl)c2)cc1 (stereo not shown) [compound 76]	6.27 µM	> 33.3 µM		
CC1(C)CC(=O)C2=C(C1)Nc1ccccc1N(C(=O)c1ccccc1)C2c1ccc(F)cc1 (stereo not shown) [compound 77]	21.2 µM	> 42.7 µM		
CC(C)CC(=O)N1c2ccccc2NC2=C(C(=O)CC(C)(C)C2)C1c1ccc(Cl)c(Cl)c1 (stereo not shown) [compound 78]	22.2 µM	> 33.3 µM		
CCCCOc1cccc(C2C3=C(CC(C)(C)CC3=O)Nc3ccccc3N2C(C)=O)c1 (stereo not shown) [compound 79]	31.3 µM	> 42.7 µM		
CCCCC(=O)N1c2ccccc2NC2=C(C(=O)CC(C)(C)C2)C1c1ccc(OC)c(OC)c1 (stereo not shown) [compound 80]	9.53 µM	> 33.3 µM		
COc1ccccc1C1C2=C(CC(C)(C)CC2=O)Nc2ccccc2N1C(=O)Cc1ccccc1 (stereo not shown) [compound 81]	6.72 µM	> 42.7 µM		
COc1cccc(C2C3=C(CC(C)(C)CC3=O)Nc3ccccc3N2C(=O)Cc2ccccc2)c1 (stereo not shown) [compound 82]	6.8 µM	> 42.7 µM		
CCCCCC(=O)N1c2ccccc2NC2=C(C(=O)CC(C)(C)C2)C1c1ccc(OC(C)C)cc1 (stereo not shown) [compound 83]	4.16 µM	> 42.7 µM		
CCC(=O)N1c2ccccc2NC2=C(C(=O)CC(C)(C)C2)C1c1ccc(OC)c(OC)c1 (stereo not shown) [compound 84]	20.9 µM	> 42.7 µM		
CCOc1ccc(C2C3=C(CC(C)(C)CC3=O)Nc3ccccc3N2C(=O)Cc2ccc(Cl)cc2)cc1 (stereo not shown) [compound 85]	21.4 µM	> 42.7 µM		
CCOc1ccc(C2C3=C(CC(C)(C)CC3=O)Nc3ccccc3N2C(=O)Cc2ccccc2)cc1 (stereo not shown) [compound 86]	9.69 µM	> 42.7 µM		
CC1(C)CC(=O)C2=C(C1)Nc1ccccc1N(C(=O)C(F)(F)F)C2c1ccccc1Cl (stereo not shown) [compound 87]	> 32 µM	> 42.7 µM		
CC1(C)CC(=O)C2=C(C1)Nc1ccccc1N(C(=O)c1ccccc1)C2c1ccc(Cl)cc1 (stereo not shown) [compound 88]	6.1 µM	18.5 µM		
CC1(C)CC(=O)C2=C(C1)Nc1ccccc1N(C(=O)C(F)(F)F)C2c1ccc([N+](=O)[O-])cc1 (stereo not shown) [compound 89]	5.32 µM	> 42.7 µM		
CCCCOc1ccc(C2C3=C(CC(C)(C)CC3=O)Nc3ccccc3N2C(=O)c2ccccc2)cc1 (stereo not shown) [compound 91]	8.14 µM	> 42.7 µM		
CC1(C)CC(=O)C2=C(C1)Nc1ccccc1N(C(=O)c1ccccc1)C2c1ccccc1 (stereo not shown) [compound 92]	17.6 µM	> 42.7 µM		
CCCCCC(=O)N1c2ccccc2NC2=C(C(=O)CC(C)(C)C2)C1c1ccccc1OC(C)CC (stereo not shown) [compound 93]	4.05 µM	> 42.7 µM		
CC1(C)CC(=O)C2=C(C1)Nc1ccccc1N(C(=O)c1ccccc1)C2c1ccccc1F (stereo not shown) [compound 94]	3.4 µM	> 42.7 µM		
COc1ccc(OC)c(C2C3=C(CC(C)(C)CC3=O)Nc3ccccc3N2C(=O)C(F)(F)F)c1Br (stereo not shown) [compound 96]	11.4 µM	> 42.7 µM		
CCCCC(CC)C(=O)N1c2ccccc2NC2=C(C(=O)CC(C)(C)C2)C1c1ccc(OCCC)c(OC)c1 (stereo not shown) [compound 98]	7.33 µM	> 42.7 µM		
CC(C)C(=O)N1c2ccccc2NC2=C(C(=O)CC(C)(C)C2)C1c1ccc(OCc2ccccc2)cc1 (stereo not shown) [compound 99]	3.69 µM	> 42.7 µM		
CC(C)Oc1ccc(C2C3=C(CC(C)(C)CC3=O)Nc3ccccc3N2C(=O)C(F)(F)F)cc1 (stereo not shown) [compound 100]	3.6 µM	> 42.7 µM		

Structure (SMILES)	EC50 [1, 3]	IC50 [2, 4]	EC50 ([1]; Huh-Luc cells, three days incubation, luciferase activity, read-out: Replicon Assay EC50)	IC50 ([2]; 200 nM enzyme, read-out: NS5B Polymerase Assay IC50)
CCCCCOc1ccc(C2C3=C(CC(C)(C)CC3=O)Nc3ccccc3N2C(C)=O)cc1 (stereo not shown) [compound 102]	> 32 µM	> 42.7 µM		
CC(=O)N1c2ccccc2NC2=C(C(=O)CC(C)(C)C2)C1c1cccc([N+](=O)[O-])c1 (stereo not shown) [compound 103]	> 32 µM	> 42.7 µM		
CC(=O)N1c2ccccc2NC2=C(C(=O)CC(C)(C)C2)C1c1cccc(F)c1 (stereo not shown) [compound 104]	> 32 µM	> 42.7 µM		
COc1cccc(C2C3=C(CC(C)(C)CC3=O)Nc3ccccc3N2C(C)=O)c1 (stereo not shown) [compound 105]	> 32 µM	> 42.7 µM		
COc1ccc(C2C3=C(CC(C)(C)CC3=O)Nc3ccccc3N2C(=O)C(F)(F)F)cc1OC (stereo not shown) [compound 106]	> 32 µM	> 42.7 µM		
CN(C)c1ccc(C2C3=C(CC(C)(C)CC3=O)Nc3ccccc3N2C(=O)C(F)(F)F)cc1 (stereo not shown) [compound 108]	> 32 µM	> 42.7 µM		
CCN(CC)c1ccc(C2C3=C(CC(C)(C)CC3=O)Nc3ccccc3N2C(=O)C(F)(F)F)cc1 (stereo not shown) [compound 109]	> 32 µM	> 42.7 µM		
COc1ccc(C2C3=C(CC(C)(C)CC3=O)Nc3ccccc3N2C(=O)C(F)(F)F)cc1 (stereo not shown) [compound 110]	8.11 µM	> 42.7 µM		
CC(=O)N1c2ccccc2NC2=C(C(=O)CC(C)(C)C2)C1c1ccc(Cl)cc1 (stereo not shown) [compound 111]	> 32 µM	> 42.7 µM		
CC(=O)N1c2ccccc2NC2=C(C(=O)CC(C)(C)C2)C1c1ccccc1Cl (stereo not shown) [compound 112]	> 32 µM	> 42.7 µM		
CC1(C)CC(=O)C2=C(C1)Nc1ccccc1N(C(=O)c1ccc(F)cc1)C2c1ccc(Br)cc1 (stereo not shown) [compound 113]	> 32 µM	> 42.7 µM		
CC(=O)N1c2ccccc2NC2=C(C(=O)CC(C)(C)C2)C1c1ccc(OC(C)C)cc1 (stereo not shown) [compound 114]	> 32 µM	> 42.7 µM		
CCCCOc1ccc(C2C3=C(CC(C)(C)CC3=O)Nc3ccccc3N2C(=O)C(F)(F)F)cc1 (stereo not shown) [compound 115]	14.4 µM	> 42.7 µM		
COc1c(Cl)cc(Cl)cc1C1C2=C(CC(C)(C)CC2=O)Nc2ccccc2N1C(=O)C(F)(F)F (stereo not shown) [compound 116]	> 32 µM	> 42.7 µM		
CC(=O)N1c2ccccc2NC2=C(C(=O)CC(C)(C)C2)C1c1cccc(O)c1 (stereo not shown) [compound 117]	> 32 µM	> 42.7 µM		
COc1ccc(OC)c(C2C3=C(CC(C)(C)CC3=O)Nc3ccccc3N2C(C)=O)c1 (stereo not shown) [compound 118]	> 32 µM	> 42.7 µM		
COc1ccc(C2C3=C(CC(C)(C)CC3=O)Nc3ccccc3N2C(C)=O)cc1OC (stereo not shown) [compound 119]	> 32 µM	> 42.7 µM		
CCOc1cc(C2C3=C(CC(C)(C)CC3=O)Nc3ccccc3N2C(C)=O)ccc1O (stereo not shown) [compound 121]	> 32 µM	> 42.7 µM		
CC(=O)N1c2ccccc2NC2=C(C(=O)CC(C)(C)C2)C1c1ccc(N(C)C)cc1 (stereo not shown) [compound 122]	> 32 µM	> 42.7 µM		
CCCOc1cccc(C2C3=C(CC(C)(C)CC3=O)Nc3ccccc3N2C(C)=O)c1 (stereo not shown) [compound 123]	> 32 µM	> 42.7 µM		
COc1cc(C2C3=C(CC(C)(C)CC3=O)Nc3ccccc3N2C(C)=O)ccc1OCc1ccccc1 (stereo not shown) [compound 124]			28.9 µM	8.56 µM
CCOc1ccccc1C1C2=C(CC(C)(C)CC2=O)Nc2ccccc2N1C(C)=O (stereo not shown) [compound 125]	> 32 µM	> 42.7 µM		
CC(=O)N1c2ccccc2NC2=C(C(=O)CC(C)(C)C2)C1c1cccc(Cl)c1 (stereo not shown) [compound 126]	> 32 µM	> 42.7 µM		
CCCCOc1ccc(C2C3=C(CC(C)(C)CC3=O)Nc3ccccc3N2C(C)=O)cc1 (stereo not shown) [compound 127]	11.5 µM	> 42.7 µM		
COc1ccccc1C1C2=C(CC(C)(C)CC2=O)Nc2ccccc2N1C(C)=O (stereo not shown) [compound 128]	> 32 µM	> 42.7 µM		
